Measurements reported in US8722849B2, “Polypeptides” (Novo Nordisk A/S, priority 2011, dated 2014).
≈ marks a conversion by molar mass, not a printed value. Where two headings read alike, the source gives them in different places. Starred links: 1 amine or outer side, 2 acyl side, 3 side chain; linkers in the order of their positions; H or OH if unused. Positions of bridges follow the written chain, without caps; N, C: chain ends. Residues, ends and D or L forms follow the SMILES beside them. *: point of attachment. C20 diacid = O=C(O)CCCCCCCCCCCCCCCCCCC(=O)*; γGlu = O=C(O)[C@H](CCC(=O)[*:2])N[*:1]

How the values were obtained:
[1] = target: T1, human amylin receptor (amylin 3(a) receptor: human calcitonin receptor + RAMP-3) (Homo sapiens, UniProt O60896+P30988); assay: Assay (II)a functional CRE-luciferase assay, human amylin receptor; type: cell-based; conditions: Table 2; BHK amylin 3(a)-receptor/CRE-luc cells
T1 construct: expressed in transfected cells; host or cells: BHK570
T1 sequence (P30988 25-474): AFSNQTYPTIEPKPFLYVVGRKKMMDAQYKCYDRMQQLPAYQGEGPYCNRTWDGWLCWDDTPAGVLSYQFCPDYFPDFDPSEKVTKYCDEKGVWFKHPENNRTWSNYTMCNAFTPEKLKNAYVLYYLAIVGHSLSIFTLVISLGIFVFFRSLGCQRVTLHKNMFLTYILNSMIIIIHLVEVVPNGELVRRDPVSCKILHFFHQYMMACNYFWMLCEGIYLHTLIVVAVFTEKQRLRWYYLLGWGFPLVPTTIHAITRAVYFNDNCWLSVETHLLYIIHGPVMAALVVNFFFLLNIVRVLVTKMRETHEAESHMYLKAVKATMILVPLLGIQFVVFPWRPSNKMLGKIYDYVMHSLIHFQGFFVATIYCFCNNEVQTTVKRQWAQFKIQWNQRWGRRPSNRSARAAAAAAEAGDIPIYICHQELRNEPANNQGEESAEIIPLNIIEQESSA
T1 sequence (O60896 24-148 partner): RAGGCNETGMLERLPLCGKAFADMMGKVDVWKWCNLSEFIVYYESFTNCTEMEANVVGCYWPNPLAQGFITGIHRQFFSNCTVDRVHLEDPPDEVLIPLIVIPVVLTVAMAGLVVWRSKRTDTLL

[2] = target: T2, human calcitonin receptor (Homo sapiens, UniProt P30988); assay: Assay (II)a functional CRE-luciferase assay, human calcitonin receptor; type: cell-based; conditions: Table 7; human calcitonin (CTa) receptor
T2 construct: expressed in transfected cells; host or cells: BHK570
T2 sequence (P30988 25-474): T1 sequence (P30988 25-474)

[3] = Assay (III) ThT fibrillation assay for physical stability; type: physicochemical
Procedure, shortened: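 Freshly prepared formulations, pH-adjusted, with 1 μM ThT; four or eight replicates incubated at 37 °C under 960 rpm orbital shaking. Fluorescence (ex 444/em 485 nm) read every 20 min; […]. Peptide concentration measured by RP-HPLC before and after the run.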

[4] = Assay (IV) determination of solubility; type: physicochemical
Procedure, shortened: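 Solubility was profiled across pH 3.0–8.0 after 18 hours at room temperature: a ~500 nmol/ml aqueous polypeptide solution was diluted 1:1 into 100 mM glycylglycine or bistrispropane buffers. After centrifugation, HPLC gave the dissolved concentration.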

[5] = bistrispropane buffer, pH 6, pH 6.0, read-out: Solubility pH 6.0
[6] = bistrispropane buffer, pH 6.5, pH 6.5, read-out: Solubility pH 6.5
[7] = bistrispropane buffer, pH 7, pH 7.0, 18 hours at room temperature, Table 3, read-out: Solubility pH 7.0
[8] = bistrispropane buffer, pH 7, pH 7.0, read-out: Solubility pH 7.0
[9] = bistrispropane buffer, pH 7.5, pH 7.5, read-out: Solubility pH 7.5
[10] = bistrispropane buffer, pH 8, pH 8.0, read-out: Solubility pH 8.0
[11] = glycylglycine buffer, pH 3, pH 3.0, read-out: Solubility pH 3.0
[12] = glycylglycine buffer, pH 4, pH 4.0, 18 hours at room temperature, Table 2, read-out: Solubility pH 4.0
[13] = glycylglycine buffer, pH 4, pH 4.0, read-out: Solubility pH 4.0
[14] = glycylglycine buffer, pH 5, pH 5.0, read-out: Solubility pH 5.0

Row | EC50 [1] | EC50 [2] | ThT pH 4.0 lag time (h) ([3]; ThT fibrillation assay) | solubility at 18 h [4, 5] | solubility at 18 h [4, 6] | solubility at 18 h [4, 7] | solubility at 18 h [4, 8] | solubility at 18 h [4, 9] | solubility at 18 h [4, 10] | solubility at 18 h [4, 11] | solubility at 18 h [4, 12] | solubility at 18 h [4, 13] | solubility at 18 h [4, 14] | SMILES | also measured
1 | 0.039 nM | 0.034 nM | 1.3 h | > 200 µM | > 200 µM | > 200 µM | > 200 µM | > 200 µM | > 200 µM | > 200 µM | > 200 µM | > 200 µM | > 200 µM | CC(C)C[C@H](NC(=O)[C@H](CCCNC(=N)N)NC(=O)[C@H](CCC(N)=O)NC(=O)[C@@H](NC(=O)[C@H](C)NC(=O)[C@@H]1CSSC[C@H](NC(=O)[C@H](CCCCN)NC(=O)CC[C@H](NC(=O)CCCCCCCCCCCCCCCCCCC(=O)O)C(=O)O)C(=O)N[C@@H](CC(N)=O)C(=O)N[C@@H]([C@@H](C)O)C(=O)N[C@@H](C)C(=O)N[C@@H]([C@@H](C)O)C(=O)N1)[C@@H](C)O)C(=O)N[C@@H](C)C(=O)N[C@@H](CCC(=O)O)C(=O)N[C@@H](Cc1ccccc1)C(=O)N[C@@H](CC(C)C)C(=O)N[C@H](C(=O)N[C@@H](CCCNC(=N)N)C(=O)N[C@@H](CO)C(=O)N[C@@H](CO)C(=O)N[C@@H](CCC(N)=O)C(=O)N[C@@H](CC(N)=O)C(=O)N[C@@H](Cc1ccccc1)C(=O)NCC(=O)N[C@@H](C)C(=O)N1CCC[C@H]1C(=O)N[C@@H](CC(C)C)C(=O)N[C@@H](CO)C(=O)N[C@@H](CO)C(=O)N[C@H](C(=O)N[C@@H](CC(N)=O)C(=O)N[C@H](C(=O)NCC(=O)N[C@@H](CO)C(=O)N[C@@H](CC(N)=O)C(=O)N[C@H](C(=O)N1CCC[C@H]1C(N)=O)[C@@H](C)O)C(C)C)[C@@H](C)O)C(C)C [Example 166, N-alpha-[(S)-4-Carboxy-4-(19-carboxynonadecanoylamino)butyryl]-[Glu14,Arg18,Gln21,Ala25,Pro26,Ser28,Ser29,Pro37]-pramlintide] ({C20 diacid-γGlu}-KCNTATCATQRLAEFLVRSSQNFGAPLSSTNVGSNTP-NH2; disulfide 2-7 (inferred); C-terminus assumed) | 
2 | 0.0555 nM | 0.0315 nM | >45 h | > 200 µM | > 200 µM | > 200 µM | > 200 µM | > 200 µM | > 200 µM | > 200 µM | > 200 µM | > 200 µM | > 200 µM | CC[C@H](C)[C@H](NC(=O)[C@@H]1CCCN1C(=O)CNC(=O)[C@H](Cc1ccccc1)NC(=O)[C@H](CC(N)=O)NC(=O)[C@H](CCC(N)=O)NC(=O)[C@H](CO)NC(=O)[C@H](CO)NC(=O)[C@H](Cc1c[nH]cn1)NC(=O)[C@H](Cc1c[nH]cn1)NC(=O)[C@H](CC(C)C)NC(=O)[C@H](Cc1ccccc1)NC(=O)[C@H](CCC(=O)O)NC(=O)[C@H](C)NC(=O)[C@H](CC(C)C)NC(=O)[C@H](CCCNC(=N)N)NC(=O)[C@H](CCC(N)=O)NC(=O)[C@@H](NC(=O)[C@H](C)NC(=O)[C@@H]1CSSC[C@H](NC(=O)[C@H](CCCCN)NC(=O)CC[C@H](NC(=O)CCCCCCCCCCCCCCCCCCC(=O)O)C(=O)O)C(=O)N[C@@H](CC(N)=O)C(=O)N[C@@H]([C@@H](C)O)C(=O)N[C@@H](C)C(=O)N[C@@H]([C@@H](C)O)C(=O)N1)[C@@H](C)O)C(=O)N[C@@H](CC(C)C)C(=O)N1CCC[C@H]1C(=O)N1CCC[C@H]1C(=O)N[C@H](C(=O)N[C@@H](CC(N)=O)C(=O)N[C@H](C(=O)NCC(=O)N[C@@H](CO)C(=O)N[C@@H](CC(N)=O)C(=O)N[C@H](C(=O)N1CCC[C@H]1C(N)=O)[C@@H](C)O)C(C)C)[C@@H](C)O [Example 130, N-alpha-[(S)-4-Carboxy-4-(19-carboxynonadecanoylamino)butyryl]-[Glu14,His17,Gln21,Pro37]-pramlintide] ({C20 diacid-γGlu}-KCNTATCATQRLAEFLHHSSQNFGPILPPTNVGSNTP-NH2; disulfide 2-7 (inferred)) | ThT pH 4.0 lag time ([3]; Table 8): >45 h; ThT pH 4.0 lag time ([3]; Table 9): >45 h; ThT pH 4.0 lag time ([3]; ThT fibrillation assay): >45 h; solubility at 18 h ([4]; bistrispropane buffer, pH 7, pH 7.0, Table 8, read-out: Solubility pH 7.0): > 200 µM; solubility at 18 h ([4]; bistrispropane buffer, pH 7, pH 7.0, Table 9, read-out: Solubility pH 7.0): > 200 µM; solubility at 18 h ([4]; bistrispropane buffer, pH 7.5, pH 7.5, Table 9, read-out: Solubility pH 7.5): > 200 µM
3 | 0.353 nM | 1.65 nM | 4.4 h |  |  |  |  |  |  |  |  |  |  | CC[C@H](C)[C@H](NC(=O)[C@@H]1CCCN1C(=O)CNC(=O)[C@H](Cc1ccccc1)NC(=O)[C@H](CC(N)=O)NC(=O)[C@H](CC(N)=O)NC(=O)[C@H](CO)NC(=O)[C@H](CO)NC(=O)[C@H](CCCNC(=N)N)NC(=O)[C@H](Cc1c[nH]cn1)NC(=O)[C@H](CC(C)C)NC(=O)[C@H](Cc1ccccc1)NC(=O)[C@H](CCC(=O)O)NC(=O)[C@H](C)NC(=O)[C@H](CC(C)C)NC(=O)[C@H](CCCNC(=N)N)NC(=O)[C@H](CCC(N)=O)NC(=O)[C@@H](NC(=O)[C@H](C)NC(=O)[C@@H]1CSSC[C@H](NC(=O)[C@H](CCC(=O)O)NC(=O)CC[C@H](NC(=O)CCCCCCCCCCCCCCCCCCC(=O)O)C(=O)O)C(=O)N[C@@H](CC(N)=O)C(=O)N[C@@H]([C@@H](C)O)C(=O)N[C@@H](C)C(=O)N[C@@H]([C@@H](C)O)C(=O)N1)[C@@H](C)O)C(=O)N[C@@H](CC(C)C)C(=O)N1CCC[C@H]1C(=O)N1CCC[C@H]1C(=O)N[C@H](C(=O)N[C@@H](CC(N)=O)C(=O)N[C@H](C(=O)NCC(=O)N[C@@H](CO)C(=O)N[C@@H](CC(N)=O)C(=O)N[C@H](C(=O)N[C@@H](Cc1ccc(O)cc1)C(N)=O)[C@@H](C)O)C(C)C)[C@@H](C)O [Example 5, N-alpha-[(S)-4-Carboxy-4-(19-carboxynonadecanoylamino)butyryl]-[Glu1,Glu14,His17,Arg18]-pramlintide] ({C20 diacid-γGlu}-ECNTATCATQRLAEFLHRSSNNFGPILPPTNVGSNTY-NH2; disulfide 2-7 (inferred); C-terminus assumed) | solubility at 18 h ([4]; pH 3.0, read-out: Solubility pH 3.0): >200 µM; Solubility pH 4.0 (μM) ([4]; pH 4.0, 18 hours at room temperature, Table 2): >200 μM; solubility at 18 h ([4]; pH 4.0, read-out: Solubility pH 4.0): >200 µM; solubility at 18 h ([4]; pH 5.0, read-out: Solubility pH 5.0): 62 µM (≈ 278 µg/mL); solubility at 18 h ([4]; pH 6.0, read-out: Solubility pH 6.0): 164 µM (≈ 734 µg/mL); solubility at 18 h ([4]; pH 6.5, read-out: Solubility pH 6.5): 181 µM (≈ 810 µg/mL); Solubility pH 7.0 (μM) ([4]; pH 7.0, 18 hours at room temperature, Table 3): >200 μM; solubility at 18 h ([4]; pH 7.0, read-out: Solubility pH 7.0): >200 µM; solubility at 18 h ([4]; pH 7.5, read-out: Solubility pH 7.5): >200 µM; solubility at 18 h ([4]; pH 8.0, read-out: Solubility pH 8.0): >200 µM
